Several values for one entry are separate records, joined by “and”; a condition that tells them apart may be missing. Equal values may be shown once.
Assays:
[1] = system: clot formation in whole blood; test: Thromboelastography (TEG), whole blood stimulated with tissue factor; type: cell-based, human
Method: (§1) Blood was drawn from healthy, consented volunteers under a Duke University Institutional Review Board approved protocol and anticoagulated with 3.2% sodium citrate. Whole blood (320 μL) was mixed with anticoagulant (heparin or aptamers) (10 μL) and kaolin (Haemonetics, Niles, Ill.) (10 μL) or CAT PRP reagent (Diagnostica Stago, 0.33 ρM TF final) (10 μL) was added to stimulate clotting. CaCl2 (20 μL) was immediately added to overcome the citrate, the mixture was added to a plain disposable plastic TEG cup (Haemonetics), and the assay was run according to the manufacturer's instructions. Clot formation at 37° C. was measured with a Thromboelastograph Analyzer (Haemonetics, Niles, Ill.) until a stable clot was formed (i.e., a maximum amplitude was reached) or for three hours with the aptamer combinations. The time lag time, α-angle, and maximum amplitude were automatically calculated by the TEG® Analytical Software version 4.2.3 (Haemonetics).
Because kaolin stimulates blood via the intrinsic pathway, it is unlikely that 7S-1 (FVIIa aptamer) would impair clot formation with this type of stimulation; thus, this aptamer was tested in a modified TEG with TF stimulation. CAT platelet rich plasma (PRP) reagent (TF) was diluted to a final concentration of 0.33 ρM TF to stimulate clotting.

[2] = system: clot formation in whole blood; test: Thromboelastography (TEG), whole blood stimulated with kaolin; type: cell-based, human
Method: as §1
Although the aPTT, PT, and CAT assays provide basic information about dose-dependent anticoagulation, these assays are performed in an environment that lacks platelets. Platelets play a crucial role in clot formation by providing a membrane surface upon which the clotting factors assemble, by aggregating and becoming physically incorporated into the blood clot, and by releasing internal stores of agonists that amplify coagulation (Monroe et al, Arterioscler Thromb Vasc Biol 22:138 1-9 (2002)). Therefore, a study was made of aptamer anticoagulation with thromboelastography (TEG), which provides real-time information about the kinetics of clot formation in whole blood (Reikvam et al, Transfus Apher Sci; 40:119-23 (2009). The TEG assay uses mechanical motion to quantify the physical properties of clot formation, including the lag time (the time until clot formation), the α-angle (the rate of clot formation), and the maximum amplitude (the mechanical strength of the clot formed).

[3] = system: fibrin deposition on oxygenator membrane; test: Oxygenator membrane scanning electron microscopy; design: species or system human; conditions: FIG. 25 doses: UFH 5 U/mL, 9.3T 1 μM, 11F7T 2 μM, R9D-14T 5 μM, 11F7T 0.5 μM+R9D-14T 5 μM
Method: After 2 hours of circulation (or until there was visible clot formation), the minicircuit was washed with three volumes (approximately 60 mL) of PBS at a flow rate of 50 mL/min. The oxygenator membrane was removed with forceps, washed with gentle rocking in PBS for approximately 30 sec, then removed and blotted. Three pieces approximately 10 mm×10 mm were excised from different areas of the membrane with a clean razor blade. The membrane pieces were fixed overnight in PBS with 4% formaldehyde and 2% glutaraldehyde, washed two times with PBS, then dehydrated in an ethanol gradient (30% to 100%). The membranes were subsequently submerged in tetramethylsilane (TMS) for 10 min, then removed and placed in a desiccator overnight. Desiccated membrane specimens measuring approximately 10 mm×7 mm were affixed with double sided tape to circular metal stubs approximately 14 mm in diameter. The specimens were gold sputter coated in a Denton Vacuum Desk IV® (Denton Vacuum LLC, Moorestown, N.J.) according to the manufacturer's instructions. The scanning electron microscopic (SEM) images were obtained with a FEI XL 30 FE SEM (FEI, Hillsboro, Oreg.).

Substance	Angle ([2]; RNA 0.5 μM)	Lag-time ([2]; RNA 0.5 μM)	Max. Amplitude ([2]; RNA 0.5 μM)	Angle ([2]; RNA 1.0 μM)	Lag-time ([2]; RNA 1.0 μM)	Max. Amplitude ([2]; RNA 1.0 μM)	Angle ([2]; RNA 2.0 μM)	Lag-time ([2]; RNA 2.0 μM)	Max. Amplitude ([2]; RNA 2.0 μM)	fibrin deposition on oxygenator membrane, scanning electron micrographs (in words) [3]	also measured
9.3T: FIXa aptamer, 2'-fluoropyrimidine modified RNA, SEQ ID NO: 1 (AUGGGGACUAUACCGCGUAAUGCUGCCUCCCCAU; 2'-fluoro at CU, RNA at AG, backbone not given here) [Aptamer 9.3T]	41.4 ± 0.5 deg	22.8 ± 2.0 min	55.4 ± 3.2 mm	37.6 deg and 37.6 ± 7.1 deg	25.5 min and 25.5 ± 1.8 min	55.4 mm and 55.4 ± 2.6 mm	36.9 ± 2.9 deg	29.9 ± 1.4 min	55.9 ± 3.4 mm	obvious fibrin deposition on the membrane	Angle ([1]; RNA 1.00 μM): 66.3 deg and 66.3 ± 1.3 deg; Lag-time ([1]; RNA 1.00 μM): 4.5 min and 4.5 ± 0.5 min; Max. Amplitude ([1]; RNA 1.00 μM): 69.1 mm and 69.1 ± 1.5 mm
11F7T: FXa aptamer, 2'-fluoropyrimidine modified RNA, SEQ ID NO: 2 (GAGAGCCCCAGCGAGAUAAUACUUGGCCCCGCUCUU; 2'-fluoro at CU, RNA at AG, backbone not given here) [Aptamer 11F7T]	40.3 ± 1.4 deg	15.6 ± 0.8 min	52.4 ± 1.6 mm	28.7 ± 5.0 deg	20.6 ± 3.0 min	48.2 ± 3.7 mm	18 deg and 18.0 ± 5.9 deg	39.6 min and 39.6 ± 9.1 min	39.6 mm and 39.6 ± 4.4 mm	obvious fibrin deposition on the membrane	Angle ([1]; RNA 2.00 μM): 21.4 deg and 21.4 ± 7.3 deg; Lag-time ([1]; RNA 2.00 μM): 51.1 min and 51.1 ± 12.2 min; Max. Amplitude ([1]; RNA 2.00 μM): 51.1 mm and 51.1 ± 1.6 mm
R9D-14T: prothrombin/thrombin aptamer, 58-base truncation of RNA9D-14, SEQ ID NO: 3 (GGCGGTCGATCACACAGTTCAAACGTAATAAGCCAATGTACGAGGCAGACGACTCGCC; 2'-fluoro at CT, RNA at AG, backbone and T or U not given here) [Aptamer R9D-14T]	–	–	–	–	–	–	48.1 ± 9.7 deg	8.3 ± 2.0 min	56.0 ± 6.3 mm	obvious fibrin deposition on the membrane	Angle ([1]; RNA 5.00 μM): 15.2 deg and 15.2 ± 2.5 deg; Lag-time ([1]; RNA 5.00 μM): 39.4 min and 39.4 ± 5.0 min; Max. Amplitude ([1]; RNA 5.00 μM): 36.8 mm and 36.8 ± 1.4 mm; Angle ([2]; RNA 1.25 μM): 60.4 ± 2.4 deg; Lag-time ([2]; RNA 1.25 μM): 7.1 ± 1.4 min; Max. Amplitude ([2]; RNA 1.25 μM): 62.0 ± 3.0 mm; Angle ([2]; RNA 5.0 μM): 30 deg and 30.0 ± 5.7 deg; Lag-time ([2]; RNA 5.0 μM): 21.5 min and 21.5 ± 4.9 min; Max. Amplitude ([2]; RNA 5.0 μM): 49.6 mm and 49.6 ± 3.6 mm

Source: patent publication US9687529B2, “Method of controlling coagulation” (Duke University, priority 2011, dated 2017)
